In publication PMC8237303 (Heliyon, 2021):

How the values were obtained:
[1] = tested on: GABA A receptor (Agonist site); assay: [3H]-Muscimol binding assay; conditions: 0.1 mM l-menthol; Rat cerebellum
[2] = target: Serotonin 5HT1A receptor (Human) (Homo sapiens, UniProt P08908); assay: [3H]-8-Hydreoxy-DPAT binding assay; conditions: 0.1 mM l-menthol; Human recombinant
[3] = target: Neuropeptide Y2 receptor (Human) (Homo sapiens, UniProt P49146); assay: [125I]-Peptide YY; format: binding; conditions: 0.1 mM l-menthol; Human receptor (Non-recombinant)
Sequence of Neuropeptide Y2 receptor (Human) (P49146 whole entry): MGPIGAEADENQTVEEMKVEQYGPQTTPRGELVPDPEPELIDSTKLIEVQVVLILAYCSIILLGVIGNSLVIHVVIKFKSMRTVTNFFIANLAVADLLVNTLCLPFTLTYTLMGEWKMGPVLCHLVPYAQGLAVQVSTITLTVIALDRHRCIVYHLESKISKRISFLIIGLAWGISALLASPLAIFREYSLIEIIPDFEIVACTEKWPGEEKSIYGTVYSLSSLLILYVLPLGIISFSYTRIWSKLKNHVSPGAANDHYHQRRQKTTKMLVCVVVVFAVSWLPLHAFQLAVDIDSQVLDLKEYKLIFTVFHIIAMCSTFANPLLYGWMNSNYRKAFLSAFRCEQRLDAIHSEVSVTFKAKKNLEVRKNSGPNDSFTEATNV

PAF receptor = assay: 1-O-Hexadecyl-[3H]-Platelet Activating Factor; format: binding; conditions: 0.1 mM l-menthol; Rabbit platelet
[4] = target: Dopamine D4.2 receptor (Human) (Homo sapiens, UniProt P21917, DEL265-296); assay: [3H]-Spiperone binding assay; conditions: 0.1 mM l-menthol; Human recombinant
[5] = target: Muscarinic M5 receptor (Human) (Homo sapiens, UniProt P08912); assay: [3H]-Scopolamine Methyl Chloride binding assay; conditions: 0.1 mM l-menthol; Human recombinant
[6] = tested on: Glutamate receptor (NMDA agonist site); assay: [3H]-CGP-39653 binding assay; conditions: 0.1 mM l-menthol; Rat cerebral cortex
[7] = target: Dopamine transporter (Human) (Homo sapiens, UniProt Q01959); assay: [3H]-WIN35,428 binding assay
Sequence of Dopamine transporter (Human) (Q01959 whole entry): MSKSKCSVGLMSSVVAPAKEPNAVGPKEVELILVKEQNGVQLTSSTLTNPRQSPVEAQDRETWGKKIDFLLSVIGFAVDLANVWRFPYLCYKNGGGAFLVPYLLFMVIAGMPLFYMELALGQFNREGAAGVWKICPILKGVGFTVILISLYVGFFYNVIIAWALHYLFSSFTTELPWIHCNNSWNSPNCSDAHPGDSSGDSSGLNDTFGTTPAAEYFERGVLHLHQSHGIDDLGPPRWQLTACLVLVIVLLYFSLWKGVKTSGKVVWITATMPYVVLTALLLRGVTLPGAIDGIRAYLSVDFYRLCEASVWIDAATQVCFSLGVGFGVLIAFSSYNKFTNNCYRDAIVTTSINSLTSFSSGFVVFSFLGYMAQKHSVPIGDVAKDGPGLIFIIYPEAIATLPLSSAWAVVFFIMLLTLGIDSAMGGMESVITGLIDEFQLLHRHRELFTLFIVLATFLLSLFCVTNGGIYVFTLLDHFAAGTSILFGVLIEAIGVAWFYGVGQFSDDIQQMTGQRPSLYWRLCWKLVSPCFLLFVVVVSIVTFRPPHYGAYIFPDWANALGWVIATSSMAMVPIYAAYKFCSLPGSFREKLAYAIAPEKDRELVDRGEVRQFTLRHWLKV

[8] = target: Adenosine transporter (Human) (Homo sapiens, UniProt Q99808); assay: [3H]-S-; format: binding; conditions: 0.1 mM l-menthol; Human receptor
[9] = target: Bradykinin B1 receptor (Human) (Homo sapiens, UniProt P46663); assay: [3H]-Kallidin; format: binding; conditions: 0.1 mM l-menthol; Human recombinant
Sequence of Bradykinin B1 receptor (Human) (P46663 whole entry): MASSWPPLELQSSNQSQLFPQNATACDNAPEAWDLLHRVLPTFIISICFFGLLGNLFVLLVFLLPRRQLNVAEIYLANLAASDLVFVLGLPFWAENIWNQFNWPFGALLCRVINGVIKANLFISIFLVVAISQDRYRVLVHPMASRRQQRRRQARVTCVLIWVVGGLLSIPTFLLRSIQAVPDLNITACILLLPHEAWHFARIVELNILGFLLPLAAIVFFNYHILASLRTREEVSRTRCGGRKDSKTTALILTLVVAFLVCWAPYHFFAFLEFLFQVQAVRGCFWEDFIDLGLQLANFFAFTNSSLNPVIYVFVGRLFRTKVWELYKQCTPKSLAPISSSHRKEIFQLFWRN

[10] = target: Endothelin ETB receptor (Human) (Homo sapiens, UniProt P24530); assay: [125I]-Endothelin-1; format: binding; conditions: 0.1 mM l-menthol; Human recombinant
Sequence of Endothelin ETB receptor (Human) (P24530 27-442): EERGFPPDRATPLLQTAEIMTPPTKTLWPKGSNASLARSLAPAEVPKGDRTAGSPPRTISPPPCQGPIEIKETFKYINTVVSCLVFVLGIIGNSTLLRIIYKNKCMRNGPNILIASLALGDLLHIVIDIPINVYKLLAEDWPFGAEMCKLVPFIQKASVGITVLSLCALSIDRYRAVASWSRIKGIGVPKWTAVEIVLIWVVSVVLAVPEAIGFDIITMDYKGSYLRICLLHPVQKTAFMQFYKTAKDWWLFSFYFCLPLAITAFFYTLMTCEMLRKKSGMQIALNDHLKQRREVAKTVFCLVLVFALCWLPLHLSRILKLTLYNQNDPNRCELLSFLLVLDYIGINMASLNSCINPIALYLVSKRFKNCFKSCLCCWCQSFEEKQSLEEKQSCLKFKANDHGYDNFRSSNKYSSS

[11] = tested on: Nicotinic receptor (Human); assay: [3H]-; format: binding; conditions: 0.1 mM l-menthol; Human receptor (Non-recombinant)
VIP 1 receptor (Human) = VIP 1 receptor (Human) (Homo sapiens, UniProt P32241); assay: [125I]-Vasoactive Intestinal Polypeptide binding assay; conditions: 0.1 mM l-menthol; Human receptor (Non-recombinant)
Sequence of VIP 1 receptor (Human) (P32241 31-457): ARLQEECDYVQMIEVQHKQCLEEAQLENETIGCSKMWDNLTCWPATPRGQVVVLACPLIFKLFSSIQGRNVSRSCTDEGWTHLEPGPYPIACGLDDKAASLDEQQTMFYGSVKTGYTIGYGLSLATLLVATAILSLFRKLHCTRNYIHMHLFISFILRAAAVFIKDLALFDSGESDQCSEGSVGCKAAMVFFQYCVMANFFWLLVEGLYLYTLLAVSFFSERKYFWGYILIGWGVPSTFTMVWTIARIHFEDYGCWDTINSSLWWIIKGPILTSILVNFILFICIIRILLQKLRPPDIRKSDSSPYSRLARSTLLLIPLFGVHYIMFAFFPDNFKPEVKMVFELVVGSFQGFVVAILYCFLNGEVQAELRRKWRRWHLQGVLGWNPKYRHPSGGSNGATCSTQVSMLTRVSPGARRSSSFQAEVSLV

[12] = target: Opiate κ receptor (Human) (Homo sapiens, UniProt P41145); format: binding; conditions: 0.1 mM l-menthol
[13] = tested on: Ca Channel (Type L, Dihydropyridine); assay: [3H]-PN200-110 binding assay; conditions: 0.1 mM l-menthol; Rat cerebral cortex
[14] = tested on: Glycine receptor (Strychnine sensitive); format: binding; conditions: 0.1 mM l-menthol; Rat spinal cord
[15] = target: Glutamate receptor (NMDAglycine site) (Rattus norvegicus, UniProt P35439); assay: [3H]-MDL105,519 binding assay; conditions: 0.1 mM l-menthol; Rat cerebral cortex
Sequence of Glutamate receptor (NMDAglycine site) (P35439 394-800 limits assumed): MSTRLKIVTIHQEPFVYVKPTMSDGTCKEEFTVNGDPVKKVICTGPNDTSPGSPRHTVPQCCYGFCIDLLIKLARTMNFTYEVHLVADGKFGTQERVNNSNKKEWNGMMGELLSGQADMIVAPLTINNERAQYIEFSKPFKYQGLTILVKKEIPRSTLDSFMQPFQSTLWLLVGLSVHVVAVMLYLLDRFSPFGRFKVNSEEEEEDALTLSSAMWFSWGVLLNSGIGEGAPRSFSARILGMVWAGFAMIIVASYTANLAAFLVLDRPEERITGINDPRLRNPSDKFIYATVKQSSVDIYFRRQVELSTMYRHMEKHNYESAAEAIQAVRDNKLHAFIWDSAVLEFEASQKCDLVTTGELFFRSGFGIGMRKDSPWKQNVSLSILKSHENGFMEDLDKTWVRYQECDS

K Channel KATP = assay: [3H]-Glybenclamide binding assay; conditions: 0.1 mM l-menthol; Rat whole brain
[16] = target: Serotonin 5HT2A receptor (Human) (Homo sapiens, UniProt P28223); assay: [3H]-Ketanserin hydrochloride binding assay; conditions: 0.1 mM l-menthol; Human recombinant
[17] = target: Vasopressin V1B receptor (Human) (Homo sapiens, UniProt P47901); assay: [3H]-Vasopressin, 8-L-Arginine binding assay; conditions: 0.1 mM l-menthol; Human recombinant
[18] = target: Neuropeptide Y1 receptor (Human) (Homo sapiens, UniProt P25929); assay: [125I]-Peptide YY; format: binding; conditions: 0.1 mM l-menthol; Human receptor (Non-recombinant)
CRF1 receptor (Human) = target: T1, CRF1 receptor (Human) (Homo sapiens, UniProt P34998); assay: [125I]-Corticotropin Releasing Factor; format: binding; conditions: 0.1 mM l-menthol; Human recombinant
T1 sequence (P34998 24-415): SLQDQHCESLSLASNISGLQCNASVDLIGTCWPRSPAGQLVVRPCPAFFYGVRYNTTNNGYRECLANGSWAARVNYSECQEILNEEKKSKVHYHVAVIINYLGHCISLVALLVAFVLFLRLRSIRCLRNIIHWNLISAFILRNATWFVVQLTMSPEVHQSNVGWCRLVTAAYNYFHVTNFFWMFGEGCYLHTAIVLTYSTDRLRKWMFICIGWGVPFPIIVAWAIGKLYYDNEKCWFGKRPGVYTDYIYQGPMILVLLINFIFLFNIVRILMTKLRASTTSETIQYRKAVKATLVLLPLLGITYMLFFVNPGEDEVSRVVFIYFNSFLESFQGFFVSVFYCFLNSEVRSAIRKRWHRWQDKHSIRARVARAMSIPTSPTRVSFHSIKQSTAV

IP3 receptor = assay: D-[3H]-Inositol-1,4,5-Triphosphate binding assay; conditions: 0.1 mM l-menthol; Rat cerebellum
[19] = target: Vasopressin V2 receptor (Human) (Homo sapiens, UniProt P30518); assay: [3H]-Vasopressin, 8-L-Arginine binding assay; conditions: 0.1 mM l-menthol; Human recombinant
[20] = target: Dopamine D3 receptor (Human) (Homo sapiens, UniProt P35462); assay: R-; format: binding; conditions: 0.1 mM l-menthol; Human recombinant
[21] = target: Opiate ORL1 receptor (Human) (Homo sapiens, UniProt P41146); assay: [3H]-Nociceptin binding assay; conditions: 0.1 mM l-menthol; Human recombinant
[22] = tested on: GABA A receptor (Picrotoxin site); assay: [3H]-EBOB binding assay; parameters: species or system Rat
[23] = target: Adenosine A1 receptor (Human) (Homo sapiens, UniProt P30542); assay: [3H]8-Cyclopentyl-1,3-dipropylxanthine; format: binding; conditions: 0.1 mM l-menthol; Human recombinant
Sequence of Adenosine A1 receptor (Human) (P30542 whole entry): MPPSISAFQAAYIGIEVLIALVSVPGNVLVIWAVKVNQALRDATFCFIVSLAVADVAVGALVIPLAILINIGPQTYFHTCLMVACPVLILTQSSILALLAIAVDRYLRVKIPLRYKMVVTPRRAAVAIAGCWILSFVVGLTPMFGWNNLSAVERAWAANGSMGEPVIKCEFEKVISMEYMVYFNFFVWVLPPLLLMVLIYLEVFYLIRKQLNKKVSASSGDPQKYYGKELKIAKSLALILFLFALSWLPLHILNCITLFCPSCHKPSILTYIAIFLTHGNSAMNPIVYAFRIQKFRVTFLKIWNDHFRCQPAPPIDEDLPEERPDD

[24] = target: β2-Adrenergic receptor (Human) (Homo sapiens, UniProt P07550); assay: [3H]-; format: binding; conditions: 0.1 mM l-menthol; Human recombinant
[25] = target: Testosterone receptor (Human) (Homo sapiens, UniProt P10275); assay: [3H]-Methyltrienolone; format: binding; conditions: 0.1 mM l-menthol
Sequence of Testosterone receptor (Human) (P10275 whole entry): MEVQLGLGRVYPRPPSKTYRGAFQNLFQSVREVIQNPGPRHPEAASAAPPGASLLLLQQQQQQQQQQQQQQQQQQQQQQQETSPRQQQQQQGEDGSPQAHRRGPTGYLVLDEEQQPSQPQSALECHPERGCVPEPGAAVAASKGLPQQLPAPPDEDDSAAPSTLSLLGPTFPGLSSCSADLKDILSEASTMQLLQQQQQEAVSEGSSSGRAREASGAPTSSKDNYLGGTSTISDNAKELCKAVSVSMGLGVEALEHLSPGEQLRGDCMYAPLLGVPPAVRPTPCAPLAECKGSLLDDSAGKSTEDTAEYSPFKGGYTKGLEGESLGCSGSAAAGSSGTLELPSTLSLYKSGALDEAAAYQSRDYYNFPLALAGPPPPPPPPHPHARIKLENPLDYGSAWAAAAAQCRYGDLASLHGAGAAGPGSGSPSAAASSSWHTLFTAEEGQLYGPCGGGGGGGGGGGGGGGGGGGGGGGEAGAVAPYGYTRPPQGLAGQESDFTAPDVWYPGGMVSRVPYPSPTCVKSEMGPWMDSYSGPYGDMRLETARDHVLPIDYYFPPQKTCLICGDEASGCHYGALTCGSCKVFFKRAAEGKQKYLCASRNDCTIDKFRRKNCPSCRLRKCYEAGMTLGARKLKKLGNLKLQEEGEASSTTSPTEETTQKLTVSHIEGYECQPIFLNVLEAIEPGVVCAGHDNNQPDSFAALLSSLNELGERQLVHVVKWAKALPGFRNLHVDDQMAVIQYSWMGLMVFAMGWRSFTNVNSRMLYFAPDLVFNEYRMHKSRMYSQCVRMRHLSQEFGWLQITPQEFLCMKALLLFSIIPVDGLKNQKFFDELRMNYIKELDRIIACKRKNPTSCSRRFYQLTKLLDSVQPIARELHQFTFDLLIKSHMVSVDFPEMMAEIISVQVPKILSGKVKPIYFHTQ

[26] = target: Angiotensin AT2 receptor (Human) (Homo sapiens, UniProt P50052); assay: [125I]-CGP-42112A binding assay; conditions: 0.1 mM l-menthol; Human recombinant
[27] = tested on: Ca channel (Type L, Benzothiazepine); assay: [3H]-; format: binding; conditions: 0.1 mM l-menthol; Rat cerebral cortex
Leukotriene D4 receptor = Leukotriene D4 receptor (Cavia porcellus, UniProt Q2NNR5); assay: [3H]-Leukotriene D4 binding assay; conditions: 0.1 mM l-menthol; Guinea pig lung
Sequence of Leukotriene D4 receptor (Q2NNR5 whole entry): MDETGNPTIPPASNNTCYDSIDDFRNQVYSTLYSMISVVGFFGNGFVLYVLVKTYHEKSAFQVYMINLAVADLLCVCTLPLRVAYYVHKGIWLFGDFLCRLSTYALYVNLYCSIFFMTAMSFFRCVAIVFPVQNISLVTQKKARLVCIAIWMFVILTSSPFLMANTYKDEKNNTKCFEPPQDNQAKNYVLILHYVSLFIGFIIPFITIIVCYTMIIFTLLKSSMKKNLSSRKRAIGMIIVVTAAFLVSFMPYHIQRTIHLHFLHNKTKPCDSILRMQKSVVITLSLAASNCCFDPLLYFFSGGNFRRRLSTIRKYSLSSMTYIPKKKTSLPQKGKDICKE

[28] = target: Neurokinin NK2 receptor (Human) (Homo sapiens, UniProt P21452); assay: [3H]-SR 48968 binding assay; conditions: 0.1 mM l-menthol; Human recombinant
CCK B receptor (Human) = CCK B receptor (Human) (Homo sapiens, UniProt P32239); assay: [125I]-Cholecystokinin Octapeptide binding assay; conditions: 0.1 mM l-menthol; Human recombinant
[29] = target: Bradykinin B2 receptor (Human) (Homo sapiens, UniProt P30411); assay: [3H]-Bradykinin binding assay; conditions: 0.1 mM l-menthol; Human recombinant

Sequence of Serotonin 5HT1A receptor (Human) (P08908 whole entry): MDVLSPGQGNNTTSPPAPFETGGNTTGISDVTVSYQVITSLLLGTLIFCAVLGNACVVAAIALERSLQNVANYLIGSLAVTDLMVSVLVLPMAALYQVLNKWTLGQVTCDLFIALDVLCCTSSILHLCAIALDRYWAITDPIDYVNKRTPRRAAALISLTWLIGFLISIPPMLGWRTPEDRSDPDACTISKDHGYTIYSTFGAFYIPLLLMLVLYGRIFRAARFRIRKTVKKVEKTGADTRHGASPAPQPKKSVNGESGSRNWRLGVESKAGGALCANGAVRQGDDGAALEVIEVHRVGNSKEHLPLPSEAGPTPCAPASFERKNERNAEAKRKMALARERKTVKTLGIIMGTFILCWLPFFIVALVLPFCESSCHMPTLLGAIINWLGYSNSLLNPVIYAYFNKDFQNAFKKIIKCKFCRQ

CC(C)[C@@H]1CC[C@@H](C)C[C@H]1O [l-menthol]
Inhibition by l-Menthol (%) [1]: 0.2%
Inhibition by l-Menthol (%) [2]: 0%
Inhibition by l-Menthol (%) [3]: 0%
Inhibition by l-Menthol (%) (PAF receptor): 0%
Inhibition by l-Menthol (%) [4]: 28.19%
Inhibition by l-Menthol (%) [5]: 0%
Inhibition by l-Menthol (%) [6]: 0%
Concentration dependence of inhibition of the [3H]-WIN35,428 binding [7]: concentration-dependent
Inhibition by l-Menthol (%) ([7]; 0.1 mM l-menthol, Human recombinant): 20.67%
IC50 ([7]; read-out: IC50 for inhibition of the [3H]-WIN35,428 binding, human recombinant dopamine transporter, 7 concentrations, duplicate): 719 µM
Ki ([7]; read-out: Ki (mol/L), inhibition of the binding of [3H]-WIN35,428, Dopamine transporter (Human), Ki=IC50/(1+[L/Kd])): 0.000615 mol/L
Inhibition by l-Menthol (%) [8]: 0.68%
Inhibition by l-Menthol (%) [9]: 6.03%
Inhibition by l-Menthol (%) [10]: 3.39%
Inhibition by l-Menthol (%) [11]: 0%
Inhibition by l-Menthol (%) (VIP 1 receptor (Human)): 2.48%
Inhibition by l-Menthol (%) [12]: 4.86%
Inhibition by l-Menthol (%) [13]: 1.17%
Inhibition by l-Menthol (%) [14]: 0%
Inhibition by l-Menthol (%) [15]: 2.56%
Inhibition by l-Menthol (%) (K Channel KATP): 2.08%
Inhibition by l-Menthol (%) [16]: 8.32%
Inhibition by l-Menthol (%) [17]: 0%
Inhibition by l-Menthol (%) [18]: 0.86%
Inhibition by l-Menthol (%) (CRF1 receptor (Human)): 0%
Inhibition by l-Menthol (%) (IP3 receptor): 0.12%
Inhibition by l-Menthol (%) [19]: 13.53%
Inhibition by l-Menthol (%) [20]: 6.32%
Inhibition by l-Menthol (%) [21]: 5.76%
Concentration dependence of inhibition of the [3H]-EBOB binding [22]: concentration-dependent
Inhibition by l-Menthol (%) ([22]; 0.1 mM l-menthol, Rat cerebral cortex): 20.9%
IC50 ([22]; read-out: IC50 for inhibition of the [3H]-EBOB binding, rat cerebral cortex preparation, 7 concentrations, duplicate): 554 µM
Ki ([22]; read-out: Ki (mol/L), inhibition of the binding of [3H]-EBOB, GABAA (Picrotoxin site), Ki=IC50/(1+[L/Kd])): 0.000288 mol/L
Inhibition by l-Menthol (%) [23]: 1.83%
Inhibition by l-Menthol (%) [24]: 0%
Inhibition by l-Menthol (%) [25]: 0%
Inhibition by l-Menthol (%) [26]: 0%
Inhibition by l-Menthol (%) [27]: 0%
Inhibition by l-Menthol (%) (Leukotriene D4 receptor): 0%
Inhibition by l-Menthol (%) [28]: 6.12%
Inhibition by l-Menthol (%) (CCK B receptor (Human)): 3.31%
Inhibition by l-Menthol (%) [29]: 7.88%
